Experiments:
[1] = system: BT-474; conditions: 72 h
How it was run: (§1)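 For viability, cells received 2.5 µl CellTiter-Blue for 2 h at 37 °C and fluorescence was read at 560/590 nm. Before this, breast cancer cell lines in 20 µl suspension had been incubated for 72 h on 384-well plates pre-loaded with compound dissolved in 5 µl medium. EC50 was obtained from a percent-inhibition dose-response fit censored at the highest concentration, after normalisation of each plate to vehicle and a positive kill control; rows with a zero drug sensitivity score were discarded.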

[2] = system: Hs578T; conditions: 72 h
How it was run: as §1

[3] = system: BT-549; conditions: 72 h
How it was run: as §1

[4] = system: MDA-MB-436; conditions: 72 h
How it was run: as §1

[5] = system: CAL-120; conditions: 72 h
How it was run: as §1

[6] = system: MDA-MB-231; conditions: 72 h
How it was run: as §1

[7] = system: HCC1599; conditions: 72 h
How it was run: as §1

[8] = system: HCC1937; conditions: 72 h
How it was run: as §1

[9] = system: MDA-MB-468; conditions: 72 h
How it was run: as §1

[10] = system: MFM-223; conditions: 72 h
How it was run: as §1

[11] = system: SK-BR-3; conditions: 72 h
How it was run: as §1

[12] = system: BT-474; assay: normalised viability (% of control), CellTiter-Blue; higher = more viable cells (100 = DMSO, 0 = benzethonium chloride kill control); conditions: incubation time: 72 h
Protocol: (§2)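 DSRT, CellTiter-Blue viability, 72 h incubation. Signal is normalised to DMSO and benzethonium chloride controls. Value is the normalised response at dose 1.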

[13] = system: MDA-MB-231; assay: as above; conditions: incubation time: 72 h
Protocol: as §2

[14] = system: HDQ-P1; assay: as above; conditions: incubation time: 72 h
Protocol: as §2

[15] = system: SK-BR-3; assay: as above; conditions: incubation time: 72 h
Protocol: as §2

[16] = system: DU-4475; assay: as above; conditions: incubation time: 72 h
Protocol: as §2

[17] = system: HDQ-P1; conditions: 72 h
How it was run: as §1

[18] = system: CAL-51; conditions: 72 h
How it was run: as §1

[19] = system: CAL-148; conditions: 72 h
How it was run: as §1

[20] = system: DU-4475; conditions: 72 h
How it was run: as §1

[21] = system: BT-474; conditions: 72 h; remark: listed apart in the source
Protocol: (§3)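 Drug sensitivity and resistance testing (DSRT) of breast cancer cell lines in 384-well plates, 5 concentrations in 10-fold dilutions over a compound-specific 10,000-fold range. After 72 h, cytotoxicity was read by CellTox Green fluorescence and viability by CellTiter-Glo luminescence (multiplexed), normalised to DMSO and benzethonium chloride controls. EC50 is the inflection point of the fitted dose-response curve (bottom asymptote free, so it can be relative for partial curves) and is censored at the highest tested concentration. Rows with DSS 0 (no meaningful response) were excluded.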

[22] = system: CAL-85-1; conditions: 72 h
Protocol: as §3

[23] = system: MDA-MB-453; conditions: 72 h
Protocol: as §3

[24] = system: BT-549; conditions: 72 h; remark: listed apart in the source
Protocol: as §3

[25] = system: MDA-MB-436; conditions: 72 h; remark: listed apart in the source
Protocol: as §3

[26] = system: MDA-MB-231; conditions: 72 h; remark: listed apart in the source
Protocol: as §3

[27] = system: HDQ-P1; conditions: 72 h; remark: listed apart in the source
Protocol: as §3

[28] = system: CAL-51; conditions: 72 h; remark: listed apart in the source
Protocol: as §3

[29] = system: HCC1937; conditions: 72 h; remark: listed apart in the source
Protocol: as §3

[30] = system: MDA-MB-468; conditions: 72 h; remark: listed apart in the source
Protocol: as §3

[31] = system: CAL-148; conditions: 72 h; remark: listed apart in the source
Protocol: as §3

[32] = system: HCC1143; conditions: 72 h
How it was run: (§4)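 For viability and cell death testing, 384-well plates carried compound at 5 concentrations in 10-fold steps over a compound-specific 10,000-fold range, and breast cancer cell lines were seeded in 20 µl suspension. After 72 h incubation, cell death was read by CellTox Green fluorescence (485/520 nm) before viability was read by CellTiter-Glo luminescence. EC50 was fitted from the dose-response curves and censored at the top concentration. Normalisation on each plate was to 0.1 % DMSO and a positive kill control.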

[33] = system: HDQ-P1; conditions: 72 h; remark: listed apart in the source
How it was run: as §4

[34] = system: CAL-148; conditions: 72 h; remark: listed apart in the source
How it was run: as §4

[35] = system: MFM-223; conditions: 72 h; remark: listed apart in the source
How it was run: as §4

[36] = system: DU-4475; conditions: 72 h; remark: listed apart in the source
How it was run: as §4

[37] = system: HCC1143; conditions: 72 h; remark: listed apart in the source
How it was run: as §1

[38] = system: CAL-85-1; conditions: 72 h; remark: listed apart in the source
How it was run: as §1

[39] = system: Hs578T; conditions: 72 h; remark: listed apart in the source
Protocol: as §3

[40] = system: HCC1143; conditions: 72 h; remark: listed apart in the source
Protocol: as §3

[41] = system: CAL-120; conditions: 72 h; remark: listed apart in the source
Protocol: as §3

[42] = system: MCF-10A; conditions: 72 h
Protocol: as §3

[43] = system: MFM-223; conditions: 72 h; remark: listed apart in the source
Protocol: as §3

[44] = system: HCC1599; conditions: 72 h; remark: listed apart in the source
How it was run: as §4

Row | Compound | EC50, CellTiter-Blue viability [1] | EC50, CellTiter-Blue viability [2] | EC50, CellTiter-Blue viability [3] | EC50, CellTiter-Blue viability [4] | EC50, CellTiter-Blue viability [5] | EC50, CellTiter-Blue viability [6] | EC50, CellTiter-Blue viability [8] | EC50, CellTiter-Blue viability [9] | EC50, CellTiter-Blue viability [10] | EC50, CellTiter-Blue viability [11] | EC50, CellTiter-Blue viability [17] | EC50, CellTox Green [21] | EC50, CellTox Green [22] | EC50, CellTox Green [25] | EC50, CellTox Green [26] | EC50, CellTox Green [28] | EC50, CellTox Green [30] | EC50, CellTiter-Glo [33] | EC50, CellTiter-Glo [34] | EC50, CellTiter-Glo [35] | other results
1 | CN(C)C[C@@H]1CCn2cc(c3ccccc32)C2=C(C(=O)NC2=O)c2cn(c3ccccc23)CCO1 [Ruboxistaurin] | 2.79 µM | 8.92 µM | 8 µM | 0.505 µM | 6.14 µM | 4.7 µM | 4.09 µM | 2.69 µM | 1.48 µM | 2.4 µM | 3.54 µM | 0.37 µM | 2.32 µM | 1 µM | 2.01 µM | 1.58 µM | 2.49 µM | 2.72 µM | 1.75 µM | 3.22 µM | EC50, CellTiter-Blue viability [7]: 1.73 µM; normalised viability ([12]; 1 nM): 118%; normalised viability ([13]; 1 nM): 92.5%; normalised viability ([14]; 1 nM): 70.7%; normalised viability ([15]; 1 nM): 99.3%; normalised viability ([16]; 1 nM): 97%; EC50, CellTiter-Blue viability [18]: 4.8 µM; EC50, CellTiter-Blue viability [19]: 4.84 µM; EC50, CellTiter-Blue viability [20]: 2.74 µM; EC50, CellTox Green [23]: 3.79 µM; EC50, CellTox Green [24]: 7.22 µM; EC50, CellTox Green [27]: 5.09 µM; EC50, CellTox Green [29]: 7.55 µM; EC50, CellTox Green [31]: 0.999 µM; EC50, CellTiter-Glo [32]: 9.32 µM; EC50, CellTiter-Glo [36]: 3.79 µM
2 | C/C(=C\c1csc(C)n1)[C@@H]1C[C@@H]2O[C@]2(C)CCC[C@H](C)[C@H](O)[C@@H](C)C(=O)C(C)(C)[C@@H](O)CC(=O)O1 [Patupilone] | 0.0109 µM | 0.0067 µM | 0.00438 µM | 0.00726 µM | 0.00813 µM | 0.00095 µM | 0.00226 µM | 0.00277 µM | 0.013 µM | 0.00558 µM | 0.0165 µM | 0.0351 µM | 0.0533 µM | 0.00893 µM | 0.136 µM | 0.00263 µM | 0.00167 µM | 0.0667 µM | 0.03 µM | 0.156 µM | EC50, CellTiter-Blue viability [37]: 0.00987 µM; EC50, CellTiter-Blue viability [7]: 0.211 µM; normalised viability ([12]; 0.1 nM): 97.7%; normalised viability ([13]; 0.1 nM): 129%; normalised viability ([14]; 0.1 nM): 112%; normalised viability ([15]; 0.1 nM): 102%; normalised viability ([16]; 0.1 nM): 98.7%; EC50, CellTiter-Blue viability [38]: 0.00156 µM; EC50, CellTiter-Blue viability [18]: 0.0114 µM; EC50, CellTiter-Blue viability [19]: 0.00313 µM; EC50, CellTiter-Blue viability [20]: 0.0111 µM; EC50, CellTox Green [39]: 0.206 µM; EC50, CellTox Green [40]: 0.596 µM; EC50, CellTox Green [41]: 0.163 µM; EC50, CellTox Green [42]: 0.145 µM; EC50, CellTox Green [31]: 0.0348 µM; EC50, CellTox Green [43]: 0.609 µM; EC50, CellTiter-Glo [32]: 0.0189 µM; EC50, CellTiter-Glo [44]: 0.584 µM; EC50, CellTiter-Glo [36]: 0.0938 µM
3 | CCCCCCCCc1ccc(CCC(N)(CO)CO)cc1 [Fingolimod] | 3.94 µM | 3.44 µM | 2.22 µM | 1.78 µM | 2.38 µM | 2.14 µM | 2.96 µM | 3.55 µM | 4.43 µM | 3.87 µM | 5.35 µM | 3.46 µM | 2.04 µM | 8.12 µM | 2.65 µM | 7.86 µM | 2.51 µM | 6.87 µM | 9.19 µM | 6.92 µM | normalised viability ([12]; 1 nM): 97.7%; normalised viability ([13]; 1 nM): 95.6%; normalised viability ([14]; 1 nM): 130%; normalised viability ([15]; 1 nM): 102%; normalised viability ([16]; 1 nM): 122%; EC50, CellTiter-Blue viability [38]: 5.29 µM; EC50, CellTox Green [23]: 7.63 µM; EC50, CellTox Green [24]: 8.7 µM; EC50, CellTox Green [27]: 7.66 µM; EC50, CellTox Green [29]: 0.32 µM; EC50, CellTox Green [42]: 1.11 µM; EC50, CellTox Green [43]: > 10 µM; EC50, CellTiter-Glo [44]: 9.54 µM

Reference: the supplement of paper PMC4862054
